Results taken from the NIST ThermoML archive (doi:10.1016/j.jct.2012.03.029).
± gives the expanded uncertainty stated by the source.

Experiment: mn = molality of the nth substance listed, in mol/kg
Conditions: 101 kPa, Liquid, m1 = 0.01; for speed of sound: Sing-around technique in a fixed-path interferometer; for mass density: Vibrating tube method

OC[C@H]1O[C@@H]2O[C@H]3[C@H](O)[C@@H](O)[C@@H](O[C@H]4[C@H](O)[C@@H](O)[C@@H](O[C@H]5[C@H](O)[C@@H](O)[C@@H](O[C@H]6[C@H](O)[C@@H](O)[C@@H](O[C@H]7[C@H](O)[C@@H](O)[C@@H](O[C@H]8[C@H](O)[C@@H](O)[C@@H](O[C@H]1[C@H](O)[C@H]2O)O[C@@H]8CO)O[C@@H]7CO)O[C@@H]6CO)O[C@@H]5CO)O[C@@H]4CO)O[C@@H]3CO [β-cyclodextrin] + O
Conditions | mass density [kg/m3] | speed of sound [m/s]
293.15 K | 1001.93 ± 2 | 1484.4 ± 1.2
298.15 K | 1000.75 ± 2 | 1498.5 ± 0.91
303.15 K | 999.217 ± 2 | 1510.9 ± 0.88
308.15 K | 997.709 ± 2 | 1521.5 ± 1.2
